Test results published in publication PMC2851405 (Biochemistry, 2010).

Target: HPAO-1 (Ogataea angusta, UniProt P12807)
Test: phenylhydrazone formation, absorbance
Assay type: binding
Details: covalent; adduct with TPQ cofactor

Sequence of HPAO-1 (P12807 whole entry): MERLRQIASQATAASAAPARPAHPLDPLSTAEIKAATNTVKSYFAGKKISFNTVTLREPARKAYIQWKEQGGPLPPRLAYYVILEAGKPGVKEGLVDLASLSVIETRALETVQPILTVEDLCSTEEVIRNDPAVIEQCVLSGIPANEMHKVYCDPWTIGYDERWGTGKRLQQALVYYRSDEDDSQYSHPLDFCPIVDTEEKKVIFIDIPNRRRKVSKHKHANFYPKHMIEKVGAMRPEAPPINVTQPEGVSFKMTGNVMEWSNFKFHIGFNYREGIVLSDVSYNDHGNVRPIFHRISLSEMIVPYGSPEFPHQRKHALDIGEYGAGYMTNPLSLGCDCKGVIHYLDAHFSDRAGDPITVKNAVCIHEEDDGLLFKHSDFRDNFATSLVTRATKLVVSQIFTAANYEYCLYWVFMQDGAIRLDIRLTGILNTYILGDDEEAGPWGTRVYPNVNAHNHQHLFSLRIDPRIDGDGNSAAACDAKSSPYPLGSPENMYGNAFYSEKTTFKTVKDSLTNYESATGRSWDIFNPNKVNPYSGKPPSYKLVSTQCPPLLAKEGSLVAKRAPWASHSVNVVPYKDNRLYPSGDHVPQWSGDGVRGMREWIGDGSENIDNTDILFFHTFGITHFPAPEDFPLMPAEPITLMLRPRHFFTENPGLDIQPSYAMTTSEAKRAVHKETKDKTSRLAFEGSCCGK

## NNc1ccccc1 [phenylhydrazine]
  rate of phenylhydrazone formation: 0.0078 ± 0.0007 s⁻¹
